From ChEMBL document CHEMBL3774333, “Identification of SNAIL1 Peptide-Based Irreversible Lysine-Specific Demethylase 1-Selective Inactivators” (J Med Chem, 2016)
Calls of active or inactive are those of the source. No cut-off for these calls is given here.

Key:
[1] = molecular target: T1, Lysine-specific histone demethylase 1A (Homo sapiens, UniProt O60341); test: biochemical
Description: Inhibition of full length N-terminal His-tagged human recombinant LSD1 (1 to 852 residues) expressed in Escherichia coli BL21(DE3) cells using H3K4me2 peptide as substrate preincubated for 5 mins followed by substrate addition measured for 30 mins by peroxidase coupled assay

[2] = molecular target: T1, Lysine-specific histone demethylase 1A; test: Inhibition of LSD1 in human HeLa cells assessed as H3K4me2/H3 ratio at 5 uM after 24 hrs by Western blot analysis in absence of fetal bovine serum; assay type: cell-based
[3] = molecular target: T2, Amine oxidase [flavin-containing] B (Homo sapiens, UniProt P27338); test: biochemical
T2 sequence (P27338 whole entry): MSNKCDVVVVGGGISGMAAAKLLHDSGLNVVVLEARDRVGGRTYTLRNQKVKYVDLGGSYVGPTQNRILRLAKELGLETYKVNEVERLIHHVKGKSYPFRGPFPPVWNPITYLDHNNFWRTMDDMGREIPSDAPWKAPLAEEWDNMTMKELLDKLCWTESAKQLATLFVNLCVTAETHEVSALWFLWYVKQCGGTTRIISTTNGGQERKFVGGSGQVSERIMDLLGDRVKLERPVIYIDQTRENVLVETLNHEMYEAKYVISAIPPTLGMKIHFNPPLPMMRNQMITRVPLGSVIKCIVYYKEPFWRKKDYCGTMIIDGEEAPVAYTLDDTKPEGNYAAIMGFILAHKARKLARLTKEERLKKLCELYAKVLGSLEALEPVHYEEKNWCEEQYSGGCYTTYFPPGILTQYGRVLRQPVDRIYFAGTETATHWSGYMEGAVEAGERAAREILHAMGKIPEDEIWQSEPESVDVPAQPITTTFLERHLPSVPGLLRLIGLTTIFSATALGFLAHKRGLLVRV
Description: Inhibition of human recombinant MAO-B expressed in baculovirus infected BTI insect cells using (4S)-4,5-dihydro-2-(6-hydroxybenzothiazolyl)-4-thiazolecarboxylic acid as substrate incubated for 60 mins by MAO-Glo assay

[4] = tested on: HeLa; test: Antiproliferative activity against human HeLa cells assessed as inhibition of cell viability at 12.5 to 100 uM treated for 24 hrs measured after 48 hrs by alamar blue assay in absence of fetal bovine serum; assay type: functional, cell-based
[5] = molecular target: T3, Lysine-specific demethylase 5A (Homo sapiens, UniProt P29375); test: Inhibition of JARID1A in human HeLa cells assessed as H3K4me3/H3 ratio at 5 uM after 24 hrs by Western blot analysis in absence of fetal bovine serum; assay type: cell-based
[6] = molecular target: T1, Lysine-specific histone demethylase 1A; test: Inhibition of LSD1 in human HeLa cells assessed as increase in H3K4me2 level after 24 hrs by Western blot analysis in absence of fetal bovine serum; assay type: cell-based
[7] = molecular target: T3, Lysine-specific demethylase 5A; test: Inhibition of JARID1A in human HeLa cells assessed as H3K4me3/H3 ratio at 20 uM after 24 hrs by Western blot analysis in absence of fetal bovine serum; assay type: cell-based
[8] = molecular target: T1, Lysine-specific histone demethylase 1A; conditions: 22 h
Description: Drug metabolism assessed as LSD1 (unknown origin)-mediated compound-FAD adduct formation after 22 hrs by MALDI-TOF mass spectrometric analysis

[9] = molecular target: T4, Lysine-specific histone demethylase 2 (Homo sapiens, UniProt Q8NB78); test: biochemical
T4 sequence (Q8NB78 whole entry): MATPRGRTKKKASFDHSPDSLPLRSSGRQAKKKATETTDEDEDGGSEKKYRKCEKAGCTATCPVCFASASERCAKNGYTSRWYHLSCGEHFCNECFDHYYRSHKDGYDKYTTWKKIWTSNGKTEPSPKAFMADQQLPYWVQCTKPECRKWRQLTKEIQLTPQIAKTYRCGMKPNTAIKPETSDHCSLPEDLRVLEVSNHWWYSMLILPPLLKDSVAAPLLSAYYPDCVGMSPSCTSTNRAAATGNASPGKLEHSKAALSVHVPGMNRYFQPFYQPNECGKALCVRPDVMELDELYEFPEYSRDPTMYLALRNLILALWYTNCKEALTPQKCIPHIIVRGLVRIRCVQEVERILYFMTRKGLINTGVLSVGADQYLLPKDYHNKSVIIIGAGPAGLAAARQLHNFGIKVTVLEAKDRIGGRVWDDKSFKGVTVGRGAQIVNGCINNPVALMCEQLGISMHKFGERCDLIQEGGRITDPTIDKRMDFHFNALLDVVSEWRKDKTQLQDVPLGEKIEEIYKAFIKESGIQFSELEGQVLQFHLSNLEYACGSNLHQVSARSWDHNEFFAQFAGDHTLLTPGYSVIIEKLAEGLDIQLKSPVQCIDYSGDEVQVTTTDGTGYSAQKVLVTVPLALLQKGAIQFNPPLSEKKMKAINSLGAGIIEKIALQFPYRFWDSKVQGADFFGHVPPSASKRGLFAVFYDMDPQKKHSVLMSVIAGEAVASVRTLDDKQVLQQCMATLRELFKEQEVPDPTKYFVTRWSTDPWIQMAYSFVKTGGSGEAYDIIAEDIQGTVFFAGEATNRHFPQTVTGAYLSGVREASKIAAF
Description: Inhibition of full length N-terminal His-tagged human LSD2 (1 to 822 residues) expressed in Escherichia coli BL21(DE3) cells using H3K4me2 peptide substrate by MALDI-TOF mass spectrometric analysis

[10] = molecular target: T5, Lysine-specific histone demethylase 2 (Homo sapiens) (UniProt Q8NB78); test: Inhibition of LSD2 in human HeLa cells assessed as H3K4me1/H3 ratio at 5 uM after 24 hrs by Western blot analysis in absence of fetal bovine serum; assay type: cell-based
T5 sequence (whole entry): T4 sequence (Q8NB78 whole entry)

[11] = molecular target: T5, Lysine-specific histone demethylase 2 (Homo sapiens); test: Inhibition of LSD2 in human HeLa cells assessed as H3K4me1/H3 ratio at 20 uM after 24 hrs by Western blot analysis in absence of fetal bovine serum; assay type: cell-based
[12] = species on record: Homo sapiens
[13] = molecular target: T6, Amine oxidase [flavin-containing] A (Homo sapiens, UniProt P21397); test: biochemical
T6 sequence (P21397 whole entry): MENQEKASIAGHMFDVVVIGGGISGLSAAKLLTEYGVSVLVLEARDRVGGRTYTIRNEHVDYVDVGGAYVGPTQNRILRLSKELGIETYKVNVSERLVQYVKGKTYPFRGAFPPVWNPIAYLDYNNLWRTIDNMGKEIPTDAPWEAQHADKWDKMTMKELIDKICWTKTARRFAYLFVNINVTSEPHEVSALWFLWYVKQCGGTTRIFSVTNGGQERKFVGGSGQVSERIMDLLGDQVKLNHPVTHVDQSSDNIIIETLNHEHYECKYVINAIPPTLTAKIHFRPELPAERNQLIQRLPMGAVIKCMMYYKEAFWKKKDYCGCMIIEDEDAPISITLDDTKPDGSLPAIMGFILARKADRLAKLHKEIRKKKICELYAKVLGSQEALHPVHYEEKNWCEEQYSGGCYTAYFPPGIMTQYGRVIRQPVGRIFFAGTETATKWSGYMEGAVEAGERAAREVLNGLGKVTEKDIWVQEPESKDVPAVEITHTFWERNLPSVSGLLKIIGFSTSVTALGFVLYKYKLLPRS
Description: Inhibition of human recombinant MAO-A expressed in baculovirus infected BTI insect cells using (4S)-4,5-dihydro-2-(6-hydroxybenzothiazolyl)-4-thiazolecarboxylic acid as substrate incubated for 60 mins by MAO-Glo assay

[14] = molecular target: T3, Lysine-specific demethylase 5A; test: Inhibition of JARID1A in human HeLa cells assessed as H3K4me3/H3 ratio at 10 uM after 24 hrs by Western blot analysis in absence of fetal bovine serum; assay type: cell-based
[15] = species on record: Homo sapiens; remark: listed apart in the source
[16] = molecular target: T1, Lysine-specific histone demethylase 1A; test: Inhibition of LSD1 in human HeLa cells assessed as H3K4me2/H3 ratio at 10 uM after 24 hrs by Western blot analysis in absence of fetal bovine serum; assay type: cell-based
[17] = molecular target: T3, Lysine-specific demethylase 5A
Description: Inhibition of JARID1A (unknown origin) using H3K4me3 peptide substrate preincubated for 5 mins followed by substrate addition by MALDI-TOF mass spectrometric analysis

[18] = molecular target: T5, Lysine-specific histone demethylase 2 (Homo sapiens); test: Inhibition of LSD2 in human HeLa cells assessed as H3K4me1/H3 ratio at 10 uM after 24 hrs by Western blot analysis in absence of fetal bovine serum; assay type: cell-based
[19] = species on record: Homo sapiens; remark: listed apart in the source
[20] = species on record: Homo sapiens; remark: listed apart in the source
[21] = molecular target: T1, Lysine-specific histone demethylase 1A; test: Inhibition of LSD1 in human HeLa cells assessed as H3K4me2/H3 ratio at 20 uM after 24 hrs by Western blot analysis in absence of fetal bovine serum; assay type: cell-based

T3 sequence (P29375 whole entry): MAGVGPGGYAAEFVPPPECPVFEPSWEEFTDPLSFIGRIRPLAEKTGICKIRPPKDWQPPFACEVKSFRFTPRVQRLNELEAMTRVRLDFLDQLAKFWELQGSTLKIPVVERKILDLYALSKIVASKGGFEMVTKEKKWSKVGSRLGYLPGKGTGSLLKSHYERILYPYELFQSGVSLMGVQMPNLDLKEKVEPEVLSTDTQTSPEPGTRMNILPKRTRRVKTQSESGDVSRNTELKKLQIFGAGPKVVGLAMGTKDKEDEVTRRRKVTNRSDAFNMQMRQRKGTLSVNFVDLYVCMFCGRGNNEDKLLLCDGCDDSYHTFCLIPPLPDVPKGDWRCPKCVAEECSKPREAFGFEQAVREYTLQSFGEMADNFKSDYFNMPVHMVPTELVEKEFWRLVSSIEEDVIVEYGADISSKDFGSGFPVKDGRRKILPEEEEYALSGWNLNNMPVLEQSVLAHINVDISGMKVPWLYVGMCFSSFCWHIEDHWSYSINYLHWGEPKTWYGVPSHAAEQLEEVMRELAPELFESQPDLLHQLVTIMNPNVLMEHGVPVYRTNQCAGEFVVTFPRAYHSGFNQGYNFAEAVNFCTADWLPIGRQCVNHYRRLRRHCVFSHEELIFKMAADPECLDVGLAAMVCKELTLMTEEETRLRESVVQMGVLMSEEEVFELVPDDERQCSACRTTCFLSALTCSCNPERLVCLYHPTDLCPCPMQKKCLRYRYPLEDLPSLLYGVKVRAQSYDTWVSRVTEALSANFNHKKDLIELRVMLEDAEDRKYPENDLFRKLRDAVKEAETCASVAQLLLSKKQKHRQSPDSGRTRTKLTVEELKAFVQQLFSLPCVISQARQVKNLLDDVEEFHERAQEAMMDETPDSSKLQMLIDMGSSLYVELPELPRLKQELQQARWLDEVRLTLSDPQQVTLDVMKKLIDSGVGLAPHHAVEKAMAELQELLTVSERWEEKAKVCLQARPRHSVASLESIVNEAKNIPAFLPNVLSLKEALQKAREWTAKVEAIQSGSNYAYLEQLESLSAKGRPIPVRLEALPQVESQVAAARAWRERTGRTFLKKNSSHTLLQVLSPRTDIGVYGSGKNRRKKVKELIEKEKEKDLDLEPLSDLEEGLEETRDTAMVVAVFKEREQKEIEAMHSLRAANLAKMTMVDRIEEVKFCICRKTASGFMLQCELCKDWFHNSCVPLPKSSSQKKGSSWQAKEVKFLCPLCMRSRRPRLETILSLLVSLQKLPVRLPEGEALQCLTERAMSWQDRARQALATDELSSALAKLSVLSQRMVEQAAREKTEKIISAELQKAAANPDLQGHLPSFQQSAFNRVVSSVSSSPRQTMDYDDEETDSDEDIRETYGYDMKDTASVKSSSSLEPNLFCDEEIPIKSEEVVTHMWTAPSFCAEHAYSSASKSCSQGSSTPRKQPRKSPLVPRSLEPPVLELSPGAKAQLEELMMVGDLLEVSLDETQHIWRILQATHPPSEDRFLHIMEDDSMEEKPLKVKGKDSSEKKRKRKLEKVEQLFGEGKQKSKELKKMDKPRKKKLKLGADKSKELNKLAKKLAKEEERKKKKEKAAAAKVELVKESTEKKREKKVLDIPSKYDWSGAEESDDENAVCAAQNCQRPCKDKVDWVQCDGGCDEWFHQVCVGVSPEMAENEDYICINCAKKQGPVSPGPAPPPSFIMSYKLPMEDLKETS

C#CCN(C)CCC[C@H](NC(=O)[C@H](CO)NC(=O)[C@H](CCCNC(=N)N)NC(=O)[C@@H]1CCCN1)C(=O)N[C@@H](CC(C)C)C(=O)N[C@H](C(=O)N[C@@H](CCCNC(=N)N)C(=O)N[C@@H](CCCCN)C(=O)N1CCC[C@H]1C(=O)N[C@@H](CO)C(=O)N[C@@H](CC(=O)O)C(=O)N1CCC[C@H]1C(=O)N[C@@H](CC(N)=O)C(=O)N[C@@H](CCCNC(=N)N)C(=O)N[C@@H](CCCCN)C(=O)N1CCC[C@H]1C(=O)N[C@@H](CC(N)=O)C(=O)N[C@@H](Cc1ccc(O)cc1)C(=O)N[C@@H](CO)C(=O)N[C@@H](CCC(N)=O)C(N)=O)C(C)C
IC50 [1]: 17 µM

CC(C)C[C@@H](NC(=O)[C@@H](CCCNN)NC(=O)[C@@H](CO)NC(=O)[C@@H](CCCNC(=N)N)NC(=O)[C@H]1CCCN1)C(=O)N[C@@H](C(=O)N[C@H](CCCNC(=N)N)C(=O)N[C@@H](CCCCNC(=O)COCCOCCNC(=O)[C@@H](CCCNC(=N)N)NC(=O)[C@@H](CCCNC(=N)N)NC(=O)[C@@H](CCCNC(=N)N)NC(=O)[C@@H](CCCNC(=N)N)NC(=O)[C@@H](CCCNC(=N)N)NC(=O)[C@@H](CCCNC(=N)N)NC(=O)[C@@H](CCCNC(=N)N)NC(=O)[C@@H](N)CCCNC(=N)N)C(=O)N1CCC[C@H]1C(=O)N[C@@H](CO)C(=O)N[C@@H](CC(=O)O)C(=O)N1CCC[C@H]1C(=O)N[C@@H](CC(N)=O)C(=O)N[C@@H](CCCNC(=N)N)C(=O)N[C@@H](CCCCN)C(=O)N1CCC[C@H]1C(=O)N[C@H](CC(N)=O)C(=O)N[C@@H](Cc1ccc(O)cc1)C(=O)N[C@@H](CO)C(=O)N[C@@H](CCC(N)=O)C(N)=O)C(C)C
Ratio [2]: 1.29 | IC50 [3]: 30 µM | inhibition [4]: Active | Ratio [5]: 1.03 | inhibition [6]: Dose-dependent effect | Ratio [7]: 1.01 | Drug metabolism [8]: metabolite_detected | IC50 [9]: 23.2 µM | Ratio [10]: 0.96 | Ratio [11]: 1.05 | Ratio IC50 [12]: 16 | IC50 [13]: > 30 µM | Ratio [14]: 0.98 | IC50 [1]: 0.29 µM | Ratio IC50 [15]: > 94 | Ratio [16]: 1.73 | IC50 [17]: 12.9 µM | Ratio [18]: 0.99 | Ratio IC50 [19]: 94 | Ratio IC50 [20]: 23 | Ratio [21]: 2.08

C#CCN(CCC[C@H](NC(=O)[C@H](CO)NC(=O)[C@H](CCCNC(=N)N)NC(=O)[C@@H]1CCCN1)C(=O)N[C@@H](CC(C)C)C(=O)N[C@H](C(=O)N[C@@H](CCCNC(=N)N)C(=O)N[C@@H](CCCCN)C(=O)N1CCC[C@H]1C(=O)N[C@@H](CO)C(=O)N[C@@H](CC(=O)O)C(=O)N1CCC[C@H]1C(=O)N[C@@H](CC(N)=O)C(=O)N[C@@H](CCCNC(=N)N)C(=O)N[C@@H](CCCCN)C(=O)N1CCC[C@H]1C(=O)N[C@@H](CC(N)=O)C(=O)N[C@@H](Cc1ccc(O)cc1)C(=O)N[C@@H](CO)C(=O)N[C@@H](CCC(N)=O)C(N)=O)C(C)C)Cc1ccccc1
IC50 [1]: 40 µM
